# Reference: patent US8975267B2, “Tricyclic pyrrolo derivatives, process for their preparation and their use as kinase inhibitors” (Nerviano Medical Sciences S.r.l., priority 2011, dated 2015)
# Where a name gives a salt, the structure may show the parent alone.
# Experiments:
# PIM-1 = PIM-1 (Homo sapiens (Human), UniProt P11309); experiment: Biochemical assay for inhibitors of PIM-1 kinase activity (trans-phosphorylation, Dowex); conditions: 200 microM ATP, 25 microM Aktide, 1 nM enzyme
# Experimental: Biochemical Assay for Inhibitors of PIM-1 Kinase Activity
# (§1) The inhibitory activity of putative kinase inhibitors and the potency of selected compounds were determined using a trans-phosphorylation assay.
# (§2) Specific peptide or protein substrates are trans-phosphorylated by their specific ser-thr or tyr kinase in the presence of ATP traced with ^33P-γ-ATP, and in the presence of their own optimal buffer and cofactors.
# (§3) At the end of the phosphorylation reaction, more than 98% unlabeled ATP and radioactive ATP is captured by an excess of the ion exchange dowex resin; the resin then settles down to the bottom of the reaction plate by gravity.
# Supernatant is subsequently withdrawn and transferred into a counting plate, then evaluated by β-counting.
# The buffer for PIM-1 assay was composed of HEPES 50 mM, at pH 7.5, with 10 mM MgCl2, 1 mM DTT, 3 microM NaVO3, and 0.2 mg/ml BSA
# Full-length human PIM-1 was expressed and purified as described in Bullock A N, et al., J. Biol. Chem. 2005, 280, 41675-82.
# ATP concentration: 200 microM
# Enzyme concentration: 1 nM
# Substrate concentration Aktide (Chemical Abstract Service Registry Number 324029-01-8): 25 microM
# For IC50 determination, test compounds are received as a 1 mM solution in 100% DMSO and distributed into 96-well plates: compounds are then plated into the first column of a new 96-well plate (A1 to G1), 100 microL/well.
# An automated station (Biomek FX, Beckman) is used for serial dilutions, producing 1:3 dilutions in 100% DMSO, from line A1 to A10, for all the compounds in the column. Moreover, 4-5 copies of daughter plates are prepared by reformatting 5 microL of this first set of 100% DMSO dilution plates into 384-deep well plates: one copy of these serial dilution plates with the test compounds is thawed on the day of study, reconstituted at the working concentration (3-fold the final concentration) with 162 microL/well of water and used for IC50 determination assays. In a standard experiment, the highest concentration (3×) of compounds is typically 30 microM, while the lowest one is typically 1.5 nM.
# Each 384-well plate generates at least one curve of the standard inhibitor staurosporine and reference wells (total enzyme activity vs. no enzymatic activity) for evaluation of Z′ and signal to background (S/B) ratio.
# 384-well plates, V bottom (test plates) are prepared with 5 microL of compound diluted as previously described (3×) and then placed onto a PlateTrak 12 robotized station (Perkin Elmer; the robot has one 384-tip pipetting head for assay start, plus one 96-tip head for dispensing resin) together with one reservoir for Enzyme mix (3×) and one for ATP mix (3×).
# Data are analyzed by an internally customized version of the “Assay Explorer” SW package, which provides sigmoidal fitting of the ten-dilution curves for IC50 determination in secondary assay/hit confirmation routines.
# MPS1 = MPS1 (Homo sapiens (Human), UniProt P33981); experiment: Biochemical assay for inhibitors of MPS1 kinase activity (trans-phosphorylation, Dowex); conditions: 15 microM ATP, 200 microM P38-βtide substrate, 5 nM MPS1
# Experimental: Cloning, Expression and Purification of Recombinant MPS1 Full Length Protein.
# MPS1 full length (corresponding to residues 2-857 of the full length sequence, see Swiss-Prot accession number P33981) was PCR amplified from the full-length human MPS1 gene present in house as clone pGEX4t_MPS1.
# To get a fully activated enzyme, the protein was then subjected to auto-phosphorylation in presence of ATP 1 mM at 25° C. for 2 hours in kinase buffer (Hepes pH7.5 50 mM, MgCl2 2.5 mM, MnCl2 1 mM, DTT 1 mM, phosphatase inhibitors); ATP was then removed whit a desalting column.
# Biochemical Assay for Inhibitors of MPS1 Kinase Activity
# as §1, §2
# as §3, with “gravity. Supernatant is subsequently withdrawn and transferred into a counting plate, then evaluated by β-counting.” for “gravity.”
# The buffer for MPS1 assay was composed of HEPES 50 mM, at pH 7.5, with 2.5 mM MgCl2, 1 mM MnCl2, 1 mM DTT, 3 microM Na3VO4, 2 mM β-glycerophosphate and 0.2 mg/mL BSA.
# The assay was run with a final concentration MPS1 of 5 nM, in the presence of 15 microM ATP and 1.5 nM ^33P-γ-ATP; the substrate was P38-βtide, used at 200 microM.
# a) for percent inhibition studies (HTS), individual dilution plates at 1 mM are diluted at a 3× concentration (30 microM) in ddH2O (3% DMSO=final concentration) using a Beckman NX automated pipetting platform. The same instrument is used for distributing the diluted mother plates into the test plates. b) for IC50 determination (KSS platform), 100 microL of each compound at 1 mM in 100% DMSO are transferred from the original plate into the first column of another 96 well plate (A1 to G1); well H1 is left empty for the internal standard inhibitor, usually staurosporine.
# An automated station for serial dilutions (Biomek FX, Beckman) is used for producing 1:3 dilutions in 100% DMSO, from line A1 to A10, and for all the seven compounds in the column. Moreover, 4-5 copies of daughter plates are prepared by reformatting 5 microL of this first set of 100% DMSO dilution plates into 384 deep well-plates: one copy of the daughter plates with the serial dilutions of test compounds will be thaw the day of the experiments, reconstituted at a 3× concentration with water and used in the IC50 determination assays. In a standard experiment, the highest concentration (3×) of all compounds is 30 microM, while the lowest one is 1.5 nM.
# 384-well plates, V bottom (test plates) are prepared with 5 microL of the compound dilution (3×) and then placed onto a PlateTrak 12 robotized station (Perkin Elmer; the robot has one 384-tips pipetting head for starting the assay plus one 96-tips head for dispensing the resin) together with one reservoir for the Enzyme mix (3×) and one for the ATP mix (3×).
# At the start of the run, the robot aspirates 5 microL of ATP mix, makes an air gap inside the tips (2 microL) and aspirates 5 microL of MPS1 mix. The following dispensation into the plates allows the kinase reaction to start upon 3 cycles of mixing, done by the robot itself.
# The robot incubates the plates for 60 minutes at room temperature, and then stops the reaction by pipetting 70 microL of dowex resin suspension into the reaction mix. Three cycles of mixing are done immediately after the addition of the resin.
# Another mixing cycle is performed after all the plates are stopped, this time using normal tips: the plates are then allowed to rest for about one hour in order to maximize ATP capture. […]
# PIM-2 = PIM-2 (Homo sapiens (Human), UniProt Q9P1W9); experiment: PIM-2 kinase inhibition assay: Dowex technique; assay type: biochemical; conditions: 4 microM ATP, 5 microM Aktide, 1.5 nM enzyme
# Experimental: Method for PIM-2 Kinase Inhibition Assay: Dowex Technique
# The buffer for PIM-2 assay was composed of HEPES 50 mM, at pH 7.5, with 1 mM MgCl2, 1 mM DTT, 3 microM Na3VO4, and 0.2 mg/mL BSA
# Full-length human PIM-2 was expressed and purified as described in Fedorov O, et al., PNAS 2007 104, 51, 20523-28.
# Enzyme concentration=1.5 nM
# Aktide substrate (Chemical Abstract Service Registry Number 324029-01-8)=5 microM
# See above: same procedure as described for PIM-1.
# Sequence of PIM-1 (P11309 whole entry): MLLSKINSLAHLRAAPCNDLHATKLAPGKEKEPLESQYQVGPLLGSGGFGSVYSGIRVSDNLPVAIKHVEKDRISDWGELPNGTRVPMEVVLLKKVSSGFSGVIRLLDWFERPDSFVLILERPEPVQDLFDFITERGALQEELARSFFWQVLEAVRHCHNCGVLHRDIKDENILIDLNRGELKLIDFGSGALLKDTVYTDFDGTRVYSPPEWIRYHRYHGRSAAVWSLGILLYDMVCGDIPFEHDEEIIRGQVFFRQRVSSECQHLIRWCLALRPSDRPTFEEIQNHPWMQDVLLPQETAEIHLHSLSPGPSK
# Sequence of PIM-2 (Q9P1W9 whole entry): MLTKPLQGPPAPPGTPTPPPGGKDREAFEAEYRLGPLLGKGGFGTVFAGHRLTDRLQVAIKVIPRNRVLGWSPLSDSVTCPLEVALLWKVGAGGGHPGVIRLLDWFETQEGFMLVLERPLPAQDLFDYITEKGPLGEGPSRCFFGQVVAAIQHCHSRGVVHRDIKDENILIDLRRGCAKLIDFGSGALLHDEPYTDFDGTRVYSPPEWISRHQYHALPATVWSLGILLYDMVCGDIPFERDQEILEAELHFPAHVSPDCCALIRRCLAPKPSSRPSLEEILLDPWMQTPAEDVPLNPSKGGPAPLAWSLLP
# Sequence of MPS1 (P33981 2-857): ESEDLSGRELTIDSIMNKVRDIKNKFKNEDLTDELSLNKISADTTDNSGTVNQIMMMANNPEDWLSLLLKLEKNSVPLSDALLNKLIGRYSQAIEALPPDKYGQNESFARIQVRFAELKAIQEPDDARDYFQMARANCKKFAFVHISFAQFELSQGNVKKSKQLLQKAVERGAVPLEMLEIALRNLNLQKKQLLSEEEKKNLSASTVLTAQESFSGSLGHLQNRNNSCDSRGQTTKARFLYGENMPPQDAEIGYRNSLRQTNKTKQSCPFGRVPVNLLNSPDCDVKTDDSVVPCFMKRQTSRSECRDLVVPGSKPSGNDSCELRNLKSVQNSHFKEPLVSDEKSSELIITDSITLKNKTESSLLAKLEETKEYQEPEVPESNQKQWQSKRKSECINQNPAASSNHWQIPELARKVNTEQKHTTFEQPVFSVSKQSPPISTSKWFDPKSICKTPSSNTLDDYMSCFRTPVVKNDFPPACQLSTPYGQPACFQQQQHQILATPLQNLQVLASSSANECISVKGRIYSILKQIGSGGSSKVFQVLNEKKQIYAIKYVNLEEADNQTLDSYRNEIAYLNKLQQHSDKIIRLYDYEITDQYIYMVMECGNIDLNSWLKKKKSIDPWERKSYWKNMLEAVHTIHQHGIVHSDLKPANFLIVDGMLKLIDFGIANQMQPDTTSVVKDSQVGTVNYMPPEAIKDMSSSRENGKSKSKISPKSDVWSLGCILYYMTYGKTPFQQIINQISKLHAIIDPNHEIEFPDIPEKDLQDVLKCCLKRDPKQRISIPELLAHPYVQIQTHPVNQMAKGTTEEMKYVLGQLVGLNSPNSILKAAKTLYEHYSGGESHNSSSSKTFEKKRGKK
Compound,IC50 (PIM-1) [nM],IC50 (MPS1) [nM],IC50 (PIM-2) [nM]
"CCc1cccc(CC)c1NC(=O)c1c2c(n(C)c1C)-c1nc(Nc3ccc(N4CCC(N5CCCC5)CC4)cc3OC)ncc1CC2 [Compound 3, N-(2,6-diethylphenyl)-2-({2-methoxy-4-[4-(pyrrolidin-1-yl)piperidin-1-yl]phenyl}amino)-8,9-dimethyl-6,9-dihydro-5H-pyrrolo[3,2-h]quinazoline-7-carboxamide]",> 10000,99,> 10000
"COc1cc(N2CCN(C)CC2)ccc1Nc1ncc2c(n1)-c1c(c(C(N)=O)c(C)n1C)CC2 [Compound 7, 2-{[2-methoxy-4-(4-methylpiperazin-1-yl)phenyl]amino}-8,9-dimethyl-6,9-dihydro-5H-pyrrolo[3,2-h]quinazoline-7-carboxamide]",748,23,> 5000
"CCc1cccc(CC)c1NC(=O)c1cn(C)c2c1CCCc1cnc(Nc3ccc(N4CCN(C)CC4)cc3OC)nc1-2 [Compound 16, N-(2,6-diethylphenyl)-2-{[2-methoxy-4-(4-methylpiperazin-1-yl)phenyl]amino}-10-methyl-5,6,7,10-tetrahydropyrrolo[3′,2′:6,7]cyclohepta[1,2-d]pyrimidine-8-carboxamide]",> 10000,132,> 10000
"CSc1ncc2c(n1)-c1c(c(C(N)=O)cn1C(C)C)CC2 [Compound 22, 2-(methylsulfanyl)-9-(propan-2-yl)-6,9-dihydro-5H-pyrrolo[3,2-h]quinazoline-7-carboxamide]",16,382,24
"CSc1ncc2c(n1)-c1c(c(C(N)=O)cn1CCO)CC2 [Compound 25, 9-(2-hydroxyethyl)-2-(methylsulfanyl)-6,9-dihydro-5H-pyrrolo[3,2-h]quinazoline-7-carboxamide]",133,2440,540
"CSc1ncc2ccc3c(C(N)=O)c(C)n(CCO)c3c2n1 [Compound 29, 9-(2-hydroxyethyl)-8-methyl-2-(methylsulfanyl)-9H-pyrrolo[3,2-h]quinazoline-7-carboxamide]",87,2940,408
"CSc1ncc2ccc3c(C(N)=O)c(C)n(C(C)C)c3c2n1 [Compound 30, 8-methyl-2-(methylsulfanyl)-9-(propan-2-yl)-9H-pyrrolo[3,2-h]quinazoline-7-carboxamide]",4,622,12
"CSc1ncc2c(n1)-c1c(c(C(N)=O)cn1C1CCNCC1)CC2 [Compound 32, 2-(methylsulfanyl)-9-(piperidin-4-yl)-6,9-dihydro-5H-pyrrolo[3,2-h]quinazoline-7-carboxamide hydrochloride]",74,> 10000,159
"CSc1ncc2c(n1)-c1c(c(C(N)=O)cn1[C@H]1CC[C@@H](N)CC1)CC2 [Compound 33, 9-(cis 4-aminocyclohexyl)-2-(methylsulfanyl)-6,9-dihydro-5H-pyrrolo[3,2-h]quinazoline-7-carboxamide hydrochloride]",5,1550,7
"CSc1ncc2ccc3c(C(N)=O)cn([C@H]4CC[C@@H](N)CC4)c3c2n1 [Compound 34, 9-(cis-4-aminocyclohexyl)-2-(methylsulfanyl)-9H-pyrrolo[3,2-h]quinazoline-7-carboxamide]",0.8,855,1
"CSc1ncc2ccc3c(C(N)=O)cn(C4CCNCC4)c3c2n1 [Compound 35, 2-(methylsulfanyl)-9-(piperidin-4-yl)-9H-pyrrolo[3,2-h]quinazoline-7-carboxamide]",7,4550,23
"CSc1ncc2ccc3c(C(N)=O)c[nH]c3c2n1 [Compound 36, 2-(methylsulfanyl)-9H-pyrrolo[3,2-h]quinazoline-7-carboxamide]",13,814,46
"CSc1ncc2ccc3c(C(N)=O)cn(CC(C)(C)CN)c3c2n1 [Compound 38, 9-(3-amino-2,2-dimethylpropyl)-2-(methylsulfanyl)-9H-pyrrolo[3,2-h]quinazoline-7-carboxamide hydrochloride]",24,2940,34
"Cn1cc(C(N)=O)c2c1-c1nc(N)ncc1CC2 [Ref. cmpound 1, 2-amino-9-methyl-6,9-dihydro-5H-pyrrolo[3,2-h]quinazoline-7-carboxamide, reference compound]",> 10000,> 10000,> 10000
"NC(=O)c1c(-c2ccccc2)[nH]c2c1ccc1cnc(N)nc12 [compound 2, 2-amino-8-phenyl-9H-pyrrolo[3,2-h]quinazoline-7-carboxamide, reference compound]",> 5000,> 5000,> 10000
"Cn1c2c(c(C(N)=O)c1-c1ccccc1)CCc1cnc(N)nc1-2 [compound 3, 2-amino-9-methyl-8-phenyl-6,9-dihydro-5H-pyrrolo[3,2-h]quinazoline-7-carboxamide, reference compound]",> 5000,> 5000,> 10000
"Cn1c(-c2ccccc2)c(C(N)=O)c2ccc3cnc(N)nc3c21 [compound 4, 2-amino-9-methyl-8-phenyl-9H-pyrrolo[3,2-h]quinazoline-7-carboxamide, reference compound]",> 5000,> 5000,> 10000
